Several values for one entry are separate records, joined by “and”; a condition that tells them apart may be missing. Equal values may be shown once.
How the values were obtained:
[1] = tested on: cultured human mast cells (CHMC); experiment: CHMC low cell density IgE activation: tryptase assay; format: cell-based; settings: Low Density CHMC, anti-IgE activation, tryptase release; read-out: CHMC anti-IgE Tryptase IC50
Summary of the method: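 Degranulation was triggered with anti-IgE for 30 minutes at 37° C in cultured human mast cells seeded at low density (1000-1500 cells/well, chosen by donor) after a 1 hr equilibration in MT buffer. Released tryptase in cleared supernatant was quantified with a tryptase substrate at room temperature for 30 minutes.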

[2] = tested on: cultured human mast cells (CHMC); experiment: CHMC low cell density ionomycin activation: tryptase assay; format: cell-based; settings: Low Density CHMC, ionomycin activation, tryptase release; read-out: CHMC Ionomycin Tryptase IC50
[3] = tested on: cultured human mast cells (CHMC); experiment: CHMC high cell density IgE activation: hexos; format: cell-based
Method: (§1) After sensitizing, cells are counted, pelleted (1000 rpm, 5-10 minutes), and resuspended at 1-2 ×10^6 cells/ml in MT buffer. Add 100 ul of cell suspension to each well and 100 ul of compound dilutions. The final vehicle concentration is 0.5% DMSO. Incubate at 37° C. (5% CO2) for 1 hour. After 1 hour of compound treatment, stimulate cells with 6× anti-IgE. Mix wells with the cells and allow plates to incubate at 37° C. (5% CO2) for one hour. After 1 hour incubation, pellet cells (10 minutes, 1000 RPM) and collect 200 ul per well of the supernatant, being careful not to disturb pellet. Place the supernatant plate on ice. During the 7-hour step (see next) perform tryptase assay on supernatant that had been diluted 1:500. Resuspend cell pellet in 240 ul of CM media containing 0.5% DMSO and corresponding concentration of compound. Incubate CHMC cells for 7 hours at 37° C. (5% CO2). After incubation, pellet cells (1000 RPM, 10 minutes) and collect 225 ul per well and place in −80° C. until ready to perform ELISAS. ELISAS are performed on appropriately diluted samples (determined empirically for each donor cell population so that the sample measurement falls within the standard curve) following the supplier's instructions.
Add 50 uL of BMMC cell supernatant (see above) to the hexoseaminidase substrate, place at 37° C. for 30 minutes and read the plate at 5, 10, 15, and 30 minutes on a spectrophotometer.

[4] = tested on: cultured human mast cells (CHMC); experiment: CHMC high cell density IgE activation: tryptase; format: cell-based
Method: as §1

[5] = tested on: cultured human mast cells (CHMC); experiment: CHMC high cell density IgE activation: histamine; format: cell-based
Method: as §1

[6] = tested on: cultured human mast cells (CHMC); experiment: CHMC high cell density IgE activation: LTC4; format: cell-based
Method: as §1

[7] = tested on: cultured human mast cells (CHMC); experiment: CHMC high cell density IgE activation: TNFalpha; format: cell-based; settings: read-out: CHMC high density TNF-alpha
Method: as §1

[8] = tested on: Human Jurkat T-cells (clone N); experiment: Jurkat T-cell activation (anti-TCR, CD69 upregulation); format: cell-based
Summary of the method: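 Readout is CD69 upregulation by flow cytometry (anti-CD69-APC, 20 min at 4 °C) after 20 h anti-TCR (C305, 500 ng/ml) stimulation at 37 °C.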

[9] = Mouse Reverse Passive Arthus reaction (RPA reaction); format: in vivo, C57BL/6 mice; settings: oral, 200 mg/kg
Method: In this model system, test compounds are administered at several timepoints prior to administration of Abs and Ags. A solution of rabbit anti-OVA IgG (50 μg in 25 μl/mouse) is injected intradermally, and immediately following is an intravenous injection of chicken egg albumin (20 mg/kg of body weight) in a solution containing 1% Evans blue dye. The degree of edema and hemorrhage is measured in the dorsal skin of C57BL/6 mice using the Evan's Blue dye as an indicator of local tissue damage. Purified polyclonal rabbit IgG is used as a control.
Pretreatment time, in which the test compounds are administered prior to Ab/Ag challenge, depends on the pharmacokinetic (PK) properties of each individual compound. Four hours after induction of Arthus reaction, mice are euthanized, and tissues are harvested for assessment of edema.

Primary human B-cells = experiment: Primary B-cell activation (α-IgM, CD69 upregulation); format: cell-based; settings: read-out: 1° B-Cell CD69 IC50
Method: Primary human B-cells were isolated from buffy coat, the white cell layer that forms between the red cells and the […] when anti-coagulated blood is centrifuged, or from fresh blood using CD19-Dynal® beads and a FACS. Buffy coat was obtained from the Stanford Medical School Blood Centre, prepared on the same day by the blood bank, stored and transported cold (with ice). The buffy coat (approx 35 mL) was placed in a 500 mL conical sterile centrifuge pot and cooled on ice, then diluted with cold PBS containing 0.2% BSA (Sigma: A7638) and sodium citrate (0.1%, Sigma: S-5570) (P—B—C) to a total volume of 200 mL and mixed gently. Fresh blood was collected from donors in 10 mL vacutainers containing heparin (1 vacutainer collects approximately 8.5 mL blood). The blood was cooled on ice, transferred into 50 mL falcon tubes (20 mL/tube) or a 500 mL conical sterile centrifuge pot, and diluted with an equal volume P—B—C.
25 mL diluted blood or buffy coat was layered onto 15 mL cold ficoll and placed back on ice. The ficoll layered blood was centrifuged (Beckman GS-6R) for 45 minutes at 2000 rpm, 4° C. to separate the Peripheral Blood Mononuclear Cells (PBMC) from the Red Blood Cells (RBC) and granulocytes. The top aqueous layer was then aspirated until 1 inch above the PBMC layer. The PBMCs were transferred from every 2 ficoll tubes into one clean 50 mL falcon tube (=approx 10 mL/tube). The transferred PBMCs were diluted 5× with icecold PBS with 0.2% BSA (P—B) and centrifuged for 20 min at 1400 rpm and 4° C. The supernatant (this may be cloudy) was then aspirated and the PBMCs resuspended into 25 mL P—B and the cells counted (using a 1:5 dilution) and kept on ice.
The cells were then positively selected using anti-CD 19 antibody coupled to magnetic beads (Dynal®) as per manufacturer's instructions. The approximate required amount of CD19-Dynal® beads (CD19-coated dyna beads M-450 (pabB), Dynal®) was calculated by estimating the number of B-cells as 5% of PBMCs counted and adding approximately10 beads per cell from the bead stock (4×10^8 beads/mL). The CD19-Dynal® beads were washed 2× in P—B in a 5 mL tube using the Dynal® magnet, then added into the suspended PBMCs. This mixture was then passed through the Dynal® magnet and washed several times to separate the bead-bound cells.
After separation, the beads and antibody were removed using Dynal® CD19-DETACHaBEAD® for 45 min at 30° C. Yield is typically 2×10^7 B-cells per buffy coat. B-cells were washed and resuspended as 1E6 cells/mL in RPMI1640+10% FBS+Penicillin/[…]+1 ng/mL IFNα8. Cells were rested overnight at 37° C. and 5% CO2.
The following day, cells were washed and resuspended in RPMI+2.5% FBS to 1×10^6 cells/mL. Cells were then aliquoted into a V-bottom 96-well plate (Corning) at 65 uL cells per well. By robot, 65 uL of a 2× compound was added to the cells with final concentration of DMSO at 0.2%, and incubated for 1 hr at 37° C. Cells were then stimulated with 20 uL 7.5× α-IgM from Jackson laboratories (final 5 ug/mL) for 24 hrs. At day 3, the cells were spun down and stained for CD69 and analyzed by FACS gated on the live cells (by light scatter).
Varied concentrations of compound were compared to solvent only to determine the inhibition of B-cell activation IC50 of each compound.

Primary T-cells = experiment: Primary T-cell cytokine production (αCD3/αCD28): IL-2; format: cell-based, human; settings: read-out: 1° T-Cell IL2 IC50
Method: 2E8-4E8 PBMC or proliferating T cells grown in rIL-2 from healthy human donors were suspended in PBS were spun down (1500 rpm, 8-10 minutes) and resuspended in 100 ml RPMI Complete media (1% Pen-Strep, 1% L-Glutamine, 10 mM HEPES). The cells were plated in T175 flasks (37° C., 5% CO2) and monocytes were allowed to adhere for 2-3 hours. After monocyte attachment, non-adherent cells were harvested, counted by hemocytometer, washed several times with PBS then resuspended in Yssels Complete Media (Modified IMDM Media with 1% Human AB Serum, 1% Pen-Strep, 1% L-Glutamine, 10 mM HEPES) at […]. 90 uL of the cell dilution were then added to compounds diluted to 2× in Yssel's media and incubated for 30 minutes at 37° C. (5% CO2). After this preincubation step the compound/cell mixture was transferred to stimulation plates, as described below.
Stimulation plates were prepared by coating 96 well plates with 5 μg/ml αCD3 (BD PharMingen, Catalog #555336)+10 μg/ml αCD28 (Beckman Coulter, Catalog #IM1376) in PBS (no Ca^2+/Mg^2+) at 37° C. (5% CO2) for at 3-5 hours. After incubation with the stimulation antibodies, the cocktail was removed and the plates washed 3 times with PBS prior to addition of the primary T cell/compound mixture.
The compound/cell mixture was transferred to the stimulation plates and incubated for 18 hr at 37° C. (5% CO2). After the cell stimulation, ˜150 μl supernatant were transferred from each well into 96-well filter plates (Coming PVDF Filter Plates) spun down (2000 rpm, 2-3 minutes) and either used immediately for ELISA or LUMINEX measurements or frozen down at −80° C. for future use.
IL-2 ELISAs were performed using the Quantikine Human IL-2 ELISA kit (R&D Systems, Catalog # D2050) as described by the manufacturer and absorption was measured on a spectrophotometer at 450 nm wavelength. Blank values were substracted and absorbances were converted to pg/mL based on the standard curve.
Luminex immunoassay multiplexing for TNF, IL-2, GMSCF, IL-4 and IFNg was performed essentially as described by the manufacturer (Upstate Biotechnology). Essentially 50 uL of sample was diluted into 50 uL assay diluent and 50 uL incubation buffer, then incubated with 100 uL of the diluted detection antibody for 1 hr at RT in the dark. The filter plate was washed 2× in Wash Buffer, then incubated with 100 uL of the diluted secondary reagent (SAV-RPE) for 30 min at RT in the dark. Finally the plates were washed 3 times and bead identification and RPE fluorescent measured by the Luminex instrument.
Varied concentrations of compound were compared to solvent only to determine the inhibition of T-cell activation IC50 of each compound.

[10] = tested on: cultured human mast cells (CHMC); experiment: CHMC low cell density IgE activation: LTC4 assay; format: cell-based; settings: anti-IgE activation, LTC4 release
Method: Pellet CHMC cells (980 rpm, 10 min) and resuspend in pre-warmed MT. Add 65 ul of cells to each 96-well plate. Depending on the degranulation activity for each particular CHMC donor, load 1000-1500 cells/well. Mix four times followed by a 1 hr incubation at 37° C. […] Stimulate cells by adding 25 ul of 6× anti-IgE solution to the appropriate plates. Add 25 ul MT to un-stimulated control wells. Mix twice following addition of the anti-IgE. Incubate at 37° C. for 30 minutes. […] Spin plates at 1000 rpm for 10 min to pellet cells. Transfer 25 ul of supernatant to a 96-well black bottom plate and add 100 ul of freshly diluted tryptase substrate solution to each well. Incubate plates at room temperature for 30 min.
Leukotriene C4 (LTC4) is also quantified using an ELISA kit on appropriately diluted supernatant samples (determined empirically for each donor cell population so that the sample measurement falls within the standard curve) following the supplier's instructions.

SMILES	IC50 [1]	IC50 [2]	IC50 [3]	IC50 [4]	IC50 [5]	IC50 [6]	IC50 [7]	IC50 [8]	IC50 (Primary human B-cells)	IC50 (Primary T-cells)	IC50 [10]	inhibition of edema formation ([9]; 60 minutes prior to challenge)	% inhibition to vehicle control Edema Size ± SEM ([9]; pretreatment time 0.5 hrs)	% inhibition to vehicle control Edema Size ± SEM ([9]; pretreatment time 1 hrs)	% inhibition to vehicle control Edema Size ± SEM ([9]; pretreatment time 2 hrs)
COC(=O)c1cc2cc(Nc3ncc(F)c(Nc4ccc(OC(C)C)cc4)n3)ccc2o1 [Compound R926704]	564 nM	> 10000 nM	> 2000 nM	> 10000 nM	> 10000 nM	> 10000 nM	> 10000 nM	9270 nM							
CNC(=O)c1cc2cc(Nc3ncc(F)c(Nc4ccc(C(C)(C)C)cc4)n3)ccc2o1 [Compound R926494]	313 nM	> 10000 nM	640 nM	> 2000 nM	> 10000 nM	326 nM	> 10000 nM	12500 nM			78 nM				
COC(=O)C1Cc2cc(Nc3ncc(F)c(Nc4ccc(OC(C)C)cc4)n3)ccc2O1 (stereo not shown) [Compound R926706]	70 nM	2410 nM	> 2000 nM	> 10000 nM	> 10000 nM	1490 nM	> 10000 nM	> 10000 nM			78 nM				
Cc1noc(COc2ccc(Nc3nc(Nc4ccc(OC(C)C)cc4)ncc3F)cc2)n1 [Compound R935144]								> 10000 nM		13300 nM					
CNC(=O)c1cc2cc(Nc3ncc(F)c(Nc4ccc5c(c4)OCCO5)n3)ccc2o1 [Compound R926496]	571 nM	> 10000 nM	429 nM	533 nM	809 nM	414 nM	622 nM	4390 nM							
Oc1cccc(Nc2nc(Nc3ccc(OCc4nc(-c5ccccc5)no4)cc3)ncc2F)c1 [Compound R935134]								> 10000 nM		36100 nM					

Now those with a lower IC50 [8], led by results:

IC50 [1]	IC50 [2]	IC50 [3]	IC50 [4]	IC50 [5]	IC50 [6]	IC50 [7]	IC50 [8]	IC50 (Primary human B-cells)	IC50 (Primary T-cells)	IC50 [10]	SMILES	inhibition of edema formation ([9]; 60 minutes prior to challenge)	% inhibition to vehicle control Edema Size ± SEM ([9]; pretreatment time 0.5 hrs)	% inhibition to vehicle control Edema Size ± SEM ([9]; pretreatment time 1 hrs)	% inhibition to vehicle control Edema Size ± SEM ([9]; pretreatment time 2 hrs)
							557 nM	110 nM			CNC(=O)COc1cccc(Nc2ncc(F)c(Nc3ccc4c(c3)NC(=O)C(C)(C)O4)n2)c1 [Compound R940323]	32.4%	5.5 ± 9.3%	32.4 ± 13.0% and 32.4%	26.9 ± 11.2%
							1480 nM		1500 nM		CNC(=O)COc1cccc(Nc2ncc(F)c(Nc3ccc4cc[nH]c4c3)n2)c1 [Compound R926745]				
263 nM	> 10000 nM	1010 nM	1260 nM	641 nM	494 nM	> 10000 nM	2650 nM			533 nM	CC(C)Oc1ccc(Nc2nc(Nc3ccc4oc(CO)cc4c3)ncc2F)cc1 [Compound R926705]				

From patent publication US8158621B2, “Methods of treating or preventing autoimmune diseases with 2,4-pyrimidinediamine compounds” (Rigel Pharmaceuticals, Inc., priority 2002, dated 2012)
